The record followed here is ChEMBL document CHEMBL5579838, “Design, synthesis and antitumor activity of a novel FGFR2-selective degrader to overcome resistance of the FGFR2V564F gatekeeper mutation based on a pan-FGFR inhibitor” (Eur J Med Chem, 2024).

Chain of Fibroblast growth factor receptor 2 (P21802 whole entry): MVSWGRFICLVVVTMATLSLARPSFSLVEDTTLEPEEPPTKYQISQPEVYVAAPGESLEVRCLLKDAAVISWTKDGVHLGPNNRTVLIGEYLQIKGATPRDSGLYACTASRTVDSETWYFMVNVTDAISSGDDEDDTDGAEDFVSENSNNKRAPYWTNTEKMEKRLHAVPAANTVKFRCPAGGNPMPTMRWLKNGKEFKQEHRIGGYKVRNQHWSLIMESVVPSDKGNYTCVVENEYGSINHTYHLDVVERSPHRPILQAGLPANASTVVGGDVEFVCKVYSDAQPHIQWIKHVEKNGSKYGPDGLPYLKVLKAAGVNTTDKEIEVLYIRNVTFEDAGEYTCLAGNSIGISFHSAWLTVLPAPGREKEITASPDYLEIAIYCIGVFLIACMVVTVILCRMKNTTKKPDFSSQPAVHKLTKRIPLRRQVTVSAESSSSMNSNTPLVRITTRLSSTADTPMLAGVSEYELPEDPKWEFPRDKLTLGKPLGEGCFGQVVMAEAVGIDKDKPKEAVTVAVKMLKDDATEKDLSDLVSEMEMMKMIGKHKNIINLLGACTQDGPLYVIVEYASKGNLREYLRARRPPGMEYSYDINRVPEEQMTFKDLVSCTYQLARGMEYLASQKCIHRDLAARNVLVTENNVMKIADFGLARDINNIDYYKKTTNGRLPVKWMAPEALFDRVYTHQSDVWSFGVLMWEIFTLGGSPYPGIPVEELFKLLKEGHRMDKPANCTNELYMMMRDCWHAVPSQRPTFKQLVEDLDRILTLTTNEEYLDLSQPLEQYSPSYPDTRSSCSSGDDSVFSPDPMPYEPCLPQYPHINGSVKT

The test system of one assay is KATO III stomach cancer cell line. Description: cells. As to conditions: Homo sapiens, 72 h.
Description: Antiproliferative activity against FGFR2 amplified human KATO III cells measured after 3 days by MTT assay
The IC50 is the midpoint of a concentration-inhibition curve. A low value points to higher potency. Take `C[C@@H](Oc1ccc2[nH]nc(/C=C/c3cnn(CCNC(=O)/C=C/c4cc(C(F)(F)F)cc(C(F)(F)F)c4)c3)c2c1)c1c(Cl)cncc1Cl`: the IC50 is > 50 nM.
Regarding `C[C@@H](Oc1ccc2[nH]nc(/C=C/c3cnn(CCNC(=O)/C=C/C(=O)c4ccccc4)c3)c2c1)c1c(Cl)cncc1Cl`, half-maximal inhibition (IC50) was put at 15.4 nM.
With `Cc1ncsc1-c1ccc(CNC(=O)[C@@H]2C[C@@H](O)CN2C(=O)[C@@H](NC(=O)CCCCC(=O)NCCn2cc(/C=C/c3n[nH]c4ccc(O[C@H](C)c5c(Cl)cncc5Cl)cc34)cn2)C(C)(C)C)cc1`, the IC50 was > 50 nM.
Still for that read-out and setting: the value for `C[C@@H](Oc1ccc2[nH]nc(/C=C/c3cnn(CCNC(=O)CCCCNc4ccc5c(c4)C(=O)N(C4CCC(=O)NC4=O)C5=O)c3)c2c1)c1c(Cl)cncc1Cl` (stereo not given in full) was 20 nM; that for `C[C@@H](Oc1ccc2[nH]nc(/C=C/c3cnn(CCNC(=O)CCCCCNc4cccc5c4C(=O)N(C4CCC(=O)NC4=O)C5=O)c3)c2c1)c1c(Cl)cncc1Cl` (stereo not given in full) was 4.93 nM.
On to `C[C@@H](Oc1ccc2[nH]nc(/C=C/c3cnn(CCNC(=O)CNc4cccc5c4C(=O)N(C4CCC(=O)NC4=O)C5=O)c3)c2c1)c1c(Cl)cncc1Cl` (stereo not given in full), for which the IC50 is 22.4 nM.
Same read-out and setting: then `C[C@@H](Oc1ccc2[nH]nc(/C=C/c3cnn(CCNC(=O)CCCCNc4cccc5c4C(=O)N(C4CCC(=O)NC4=O)C5=O)c3)c2c1)c1c(Cl)cncc1Cl` (stereo not given in full), with 17.5 nM; and `Cc1ncsc1-c1ccc(CNC(=O)[C@@H]2C[C@@H](O)CN2C(=O)[C@@H](NC(=O)CCCCCC(=O)NCCn2cc(/C=C/c3n[nH]c4ccc(O[C@H](C)c5c(Cl)cncc5Cl)cc34)cn2)C(C)(C)C)cc1`, with > 50 nM.
`C[C@@H](Oc1ccc2[nH]nc(/C=C/c3cnn(CCNC(=O)CNc4ccc5c(c4)C(=O)N(C4CCC(=O)NC4=O)C5=O)c3)c2c1)c1c(Cl)cncc1Cl` (stereo not given in full) yielded an IC50 of 47 nM.
For the molecule `C[C@@H](Oc1ccc2[nH]nc(/C=C/c3cnn(CCNC(=O)/C=C/C(=O)c4ccc(Br)cc4)c3)c2c1)c1c(Cl)cncc1Cl`, the IC50 was 46.6 nM.
Still for that read-out and setting: then `Cc1ncsc1-c1ccc(CNC(=O)[C@@H]2C[C@@H](O)CN2C(=O)[C@@H](NC(=O)CCC(=O)NCn2cc(/C=C/c3n[nH]c4ccc(O[C@H](C)c5c(Cl)cncc5Cl)cc34)cn2)C(C)(C)C)cc1`, with > 50 nM; and `COc1ccc(C(=O)/C=C/C(=O)NCCn2cc(/C=C/c3n[nH]c4ccc(O[C@H](C)c5c(Cl)cncc5Cl)cc34)cn2)cc1`, with 10.1 nM.
The same measure, in the same setting: the value for `C[C@@H](Oc1ccc2[nH]nc(/C=C/c3cnn(CCNC(=O)/C=C/C(=O)c4ccc(Cl)cc4)c3)c2c1)c1c(Cl)cncc1Cl` was > 50 nM; that for `C[C@@H](Oc1ccc2[nH]nc(/C=C/c3cnn(CCNC(=O)CCCNc4cccc5c4C(=O)N(C4CCC(=O)NC4=O)C5=O)c3)c2c1)c1c(Cl)cncc1Cl` (stereo not given in full) was 8.08 nM; that for `C[C@@H](Oc1ccc2[nH]nc(/C=C/c3cnn(CCNc4ccc5c(c4)C(=O)N(C4CCC(=O)NC4=O)C5=O)c3)c2c1)c1c(Cl)cncc1Cl` (stereo not given in full) was 7.29 nM.
`C[C@@H](Oc1ccc2[nH]nc(/C=C/c3cnn(CCNC(=O)/C=C/C(=O)c4ccc(F)cc4)c3)c2c1)c1c(Cl)cncc1Cl` registered an IC50 of 12.1 nM.
Molecule `C[C@@H](Oc1ccc2[nH]nc(/C=C/c3cnn(CCNC(=O)CCNc4cccc5c4C(=O)N(C4CCC(=O)NC4=O)C5=O)c3)c2c1)c1c(Cl)cncc1Cl` (stereo not given in full) displayed an IC50 of 4.16 nM.
`C[C@@H](Oc1ccc2[nH]nc(/C=C/c3cnn(CCNC(=O)/C=C/c4ccc(C(F)(F)F)cc4)c3)c2c1)c1c(Cl)cncc1Cl` returned an IC50 of 41.8 nM.
For `Cc1ncsc1-c1ccc(CNC(=O)[C@@H]2C[C@@H](O)CN2C(=O)[C@@H](NC(=O)CCC(=O)NCCn2cc(/C=C/c3n[nH]c4ccc(O[C@H](C)c5c(Cl)cncc5Cl)cc34)cn2)C(C)(C)C)cc1`, the IC50 was > 50 nM.
Still for that read-out and setting: then `C[C@@H](Oc1ccc2[nH]nc(/C=C/c3cnn(CCNC(=O)CCCNc4ccc5c(c4)C(=O)N(C4CCC(=O)NC4=O)C5=O)c3)c2c1)c1c(Cl)cncc1Cl` (stereo not given in full), with 10.4 nM; and `C[C@@H](Oc1ccc2[nH]nc(/C=C/c3cnn(CCNC(=O)/C=C/c4cccc(C(F)(F)F)c4)c3)c2c1)c1c(Cl)cncc1Cl`, with 39.2 nM; and `C[C@@H](Oc1ccc2[nH]nc(/C=C/c3cnn(CCNc4cccc5c4C(=O)N(C4CCC(=O)NC4=O)C5=O)c3)c2c1)c1c(Cl)cncc1Cl` (stereo not given in full), with 6.83 nM.
On to `Cc1ncsc1-c1ccc(CNC(=O)[C@@H]2C[C@@H](O)CN2C(=O)[C@@H](NC(=O)CCCC(=O)NCCn2cc(/C=C/c3n[nH]c4ccc(O[C@H](C)c5c(Cl)cncc5Cl)cc34)cn2)C(C)(C)C)cc1`, for which the IC50 is > 50 nM.
`C[C@@H](Oc1ccc2[nH]nc(/C=C/c3cnn(CCNC(=O)CCNc4ccc5c(c4)C(=O)N(C4CCC(=O)NC4=O)C5=O)c3)c2c1)c1c(Cl)cncc1Cl` (stereo not given in full) yielded an IC50 of 14.8 nM.

A further assay addresses Fibroblast growth factor receptor 2 (Homo sapiens, UniProt P21802).
Assay: not given
Settings: not given
`C[C@@H](Oc1ccc2[nH]nc(/C=C/c3cnn(CCN)c3)c2c1)c1c(Cl)cncc1Cl` returned an IC50 of 2.09 nM.
